Laboratory results from patent US5698547A, “Cephalosporin antibiotics” (Microcide Pharmaceuticals, Inc., priority 1995, dated 1997).
In brackets after ≈: the same amount, converted by molar mass. Structures can show the parent of a compound that is named as a salt. Where two headings read alike, the source gives them in different places.

How the values were obtained:
[1] = tested on: S. aureus Col (Meth^R) (lac^-); assay: MIC by agar dilution, S. aureus Col (Meth^R) (lac^-); format: cell-based; settings: for activity against S. aureus Col: in words, PBP2a producer; for MIC: Staphylococcus aureus, agar dilution, S. aureus Col (Meth^R) (lac^-), read-out: MIC
Method in brief: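 Agar dilution per NCCLS (1991): two-fold dilutions from 128 μg/mL down to ≤0.25 μg/mL in Mueller-Hinton agar, each level in duplicate. Spots of about 10^4 cfu of log-phase culture; 16-20 h at 35°-36° C. MIC in μg/ml is the lowest concentration inhibiting growth.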

[2] = tested on: S. aureus Col8A (Meth^S) (lac^-); assay: MIC by agar dilution, S. aureus Col8A (Meth^S) (lac^-); format: cell-based; settings: for activity against S. aureus Col 8A: in words, lacks PBP2a; for MIC: Staphylococcus aureus, agar dilution, S. aureus Col8A (Meth^S) (lac^-), read-out: MIC
Method: (§1) The compounds of the invention were evaluated against several β-lactamresistant bacteria strains by determining the minimum inhibitory concentration (MIC, μg/ml) of each compound with respect to each strain. The MIC, the lowest concentration of antibiotic which inhibits growth of the test organism, was determined by the agar dilution method.
(§2) To determine the MIC for bacterial isolates, the test compound was incorporated in a series of two-fold dilutions into liquified Mueller-Hinton agar. Upon solidification, a number of different bacterial strains were spot inoculated with a replicating device onto the agar surface. […] The procedures used in these studies have been standardized by the National Committee for Clinical Laboratory Standards (NCCLS), as per the NCCLS publication entitled METHODS FOR DILUTION ANTIMICROBIAL SUSCEPTIBILITY TESTS (1991), which is incorporated herein by reference.
(§3) Aliquots of antimicrobial agents were prepared in phosphate buffered saline (PBS) at pH 7.2. Tween 20 or DMSO was used as a solubilizing vehicle as needed. Standard methods of vortexing, sonicating and gentle heat were used to facilitate solubilizing the test agent. Typically, the concentration of the stock solution was 10× that of the highest drug concentration tested. A 1.28 mg/mL stock solution was used with a subsequent highest working concentration of 128 μg/mL. Serial two-fold dilutions were done through ≤0.25 μg/mL. Each drug level was tested in duplicate. Two-fold drug dilutions were done in sterile 50 mL tubes with a final drug volume of 5 mL. Upon the addition of 45 mL of molten agar, a 10-fold dilution resulted. Two, 25 mL. plates were then poured into 15×150 mm square Petri plates with grids and allowed to harden.
(§4) A control plate with a reference drug, either cefotaxime, vancomycin or imipenem, was used as the positive growth control. Stock concentrations of reference antibiotics were prepared and frozen at -80° C. Upon preparation, the control plates were sealed and stored in the refrigerator for up to 1 week prior to use; however, imipenem control plates had to be prepared just prior to use. All test plates were used within 24 hours of preparation.
(§5) Satisfactory results were obtained where the inoculum contained about 10^4 colony forming units (cfu) ±0.5 logs. Starting with pure cultures of the test isolates on agar plates, a few isolated colonies were transferred to a tube of nutrient broth and allowed to grow 4-6 hours at 35°-36° C. to reach log-phase growth. Dropwise addition of the broth culture to PBS was done to match a 0.5 McFarland turbidity standard equal to 10^8 cfu/mL. This was further diluted ten-fold in PBS to reach a working inoculum concentration of 10^7 cfu/mL. When 1 μL of the working inoculum was applied to the agar surface a concentration of about 10^4 cfu per spot was obtained.
(§6) Disposable sterile 1 μL loops were used to inoculate test plates, with each isolate in a designated grid on the agar plate. An alternate method of inoculation involved the use of a replica plater, a device with 48 steel pins allowing the simultaneous inoculation of multiple isolates. After the spots had dried, the plates were incubated at 35°-36° C. for 16-20 hours. Endpoints were assessed as the minimum inhibitory concentration (MIC) of antimicrobial agent.
The novel agents of this invention are notable for their enhanced activity against S. aureus Col and Enterococci (E. faecium and E. faecalis). The S. aureus Col strain is a high-level PBP2a producer, whereas S. aureus Col 8A, its isogenic partner, lacks PBP2a. […] Thus, the compounds of the present invention are effective against PBP2a-producing bacteria.

[3] = tested on: Enterococci (E. faecium and E. faecalis); assay: In vitro antibacterial evaluation, Enterococci; format: cell-based; settings: in words
Method: as §1, §2, §3
A control plate with a reference drug, either cefotaxime, vancomycin or imipenem, was used as the positive growth control. […]
Disposable sterile 1 μL loops were used to inoculate test plates, with each isolate in a designated grid on the agar plate. […] Endpoints were assessed as the minimum inhibitory concentration (MIC) of antimicrobial agent.

[4] = tested on: methicillin-susceptible S. aureus strain ATCC 13709; assay: murine model for lethal bacteremic peritonitis; format: in vivo, female Swiss-Webster mice; settings: subcutaneous, 72 h; for ED50: Staphylococcus aureus, ATCC13709, sc, two equal doses, S. aureus ATCC 13709 IP challenge, read-out: ED50
Method in brief: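 Female Swiss-Webster mice challenged IP with an LD100 titer of bacteria in 7% hog gastric mucin; groups of 10 treated SC with twofold drug increments (0.01–512 mg/kg) as two equal doses at challenge and 2 h later. Survival followed for 72 h; PD50 (total mg/kg) calculated by probit method.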

[5] = tested on: S. aureus ATCC 29213; assay: MIC by agar dilution, S. aureus ATCC 29213; format: cell-based; settings: Staphylococcus aureus, ATCC29213
Method: as §1, §2, §3, §4, §5, §6

[6] = tested on: S. aureus 76 (Meth^R) (lac^+); assay: MIC by agar dilution, S. aureus 76 (Meth^R) (lac^+); format: cell-based; settings: Staphylococcus aureus, read-out: MIC
Method: as §1, §2, §3, §4, §5, §6

[7] = tested on: S. haemolyticus (Meth^R); assay: MIC by agar dilution, S. haemolyticus (Meth^R); format: cell-based; settings: Staphylococcus haemolyticus, read-out: MIC
Method: as §1, §2, §3, §4, §5, §6

[8] = tested on: E. faecium ATCC 35667; assay: MIC by agar dilution, E. faecium ATCC 35667; format: cell-based; settings: Enterococcus faecium, ATCC35667, read-out: MIC
Method: as §1, §2, §3, §4, §5, §6

[9] = tested on: E. faecalis ATCC 29212; assay: MIC by agar dilution, E. faecalis ATCC 29212; format: cell-based; settings: Enterococcus faecalis, ATCC29212, read-out: MIC
Method: as §1, §2, §3, §4, §5, §6

[10] = tested on: E. coli ATCC 25922; assay: MIC by agar dilution, E. coli ATCC 25922; format: cell-based; settings: Escherichia coli, ATCC25922, read-out: MIC
Method: as §1, §2, §3, §4, §5, §6

[11] = tested on: P. aeruginosa ATCC 27853; assay: MIC by agar dilution, P. aeruginosa ATCC 27853; format: cell-based; settings: Pseudomonas aeruginosa, ATCC27853, read-out: MIC
Method: as §1, §2, §3, §4, §5, §6

[12] = agar dilution, S. aureus ATCC 29213, read-out: MIC

Row | SMILES | activity against S. aureus Col [1] | activity against Enterococci [3] | Mortality ([4]; dose 0.625 mg/kg) | Mortality ([4]; dose 1.25 mg/kg) | Mortality ([4]; dose 2.5 mg/kg) | MIC [1] [µg/mL] | MIC [5, 12] [µg/mL] | MIC [6] [µg/mL] | MIC [2] [µg/mL] | MIC [7] [µg/mL] | MIC [8] [µg/mL] | MIC [9] [µg/mL] | MIC [10] [µg/mL] | MIC [11] [µg/mL] | ED50 [4] [mg/kg] | Mortality ([4]; dose 0.1562 mg/kg) | Mortality ([4]; dose 0.3125 mg/kg) | other results
1 | O=C(Cc1ccccc1)N[C@@H]1C(=O)N2C(C(=O)O)=C(Sc3ccccc3I)CS[C@H]12 [Cmpd 6, (7R)-7-[(Phenylacetyl)amino]-3-(o-iodophenylthio)-3-cephem-4-carboxylic acid] | broad activity | broad activity | 9/10 | 4/10 | 4/10 | – | – | – | – | – | – | – | – | – | – | – | – | activity against S. aureus Col 8A [2]: broad activity; Mortality ([4]; dose 2 mg/kg): 8/10; Mortality ([4]; dose 4 mg/kg): 5/10; Mortality ([4]; dose 5 mg/kg): 1/10; Mortality ([4]; dose 8 mg/kg): 1/10; Mortality ([4]; dose 10 mg/kg): 1/10; Mortality ([4]; dose 16 mg/kg): 0/10
2 | O=C(Cc1ccccc1)N[C@@H]1C(=O)N2C(C(=O)O)=C(Sc3ccccc3-c3ccccc3)CS[C@H]12 [Cmpd 9, (7R)-7-[(Phenylacetyl)amino]-3-(2-biphenylthio)-3-cephem-4-carboxylic acid] | broad activity | broad activity | – | – | – | 4 (≈ 7.96 µM) | – | – | – | – | – | – | – | – | – | – | – | activity against S. aureus Col 8A [2]: broad activity
3 | O=C(Cc1ccccc1)N[C@@H]1C(=O)N2C(C(=O)O)=C(SCc3ccc(-c4ccccc4)cc3)CS[C@H]12 [Cmpd 12, (7R)-7-[(Phenylacetyl)amino]-3-(4-biphenylmethylthio)-3-cephem-4-carboxylic acid] | lacking activity | potent activity | – | – | – | > 32 | – | – | – | – | – | – | – | – | – | – | – | –
4 | N=C(N)SCc1ccc(SC2=C(C(=O)O)N3C(=O)[C@@H](NC(=O)Cc4ccccc4)[C@H]3SC2)c(CSC(=N)N)c1 [Cmpd 138, (7R)-7-[(phenylacetyl)amino]-3-[2,4-(bis) (isothiouroniummethyl)phenylthio]-3-cephem-4-carboxylate, trifluoroacetic acid salt] | – | – | – | – | – | 2 | 0.125 | 8 | ≤ 0.06 | 8 | 0.5 | 0.5 | 32 | > 32 | 0.075 | 0/10 | 0/10 | Mortality ([4]; dose 0.0195 mg/kg): 9/10; Mortality ([4]; dose 0.0391 mg/kg): 10/10; Mortality ([4]; dose 0.0781 mg/kg): 6/10
5 | N=C(N)SCc1ccc(SC2=C(C(=O)O)N3C(=O)[C@@H](NC(=O)/C(=N\O)c4csc(N)n4)[C@H]3SC2)c(CSC(=N)N)c1 [Cmpd 139, (7R)-7-[(Z)-2-(Aminothiazol-4-yl)-2-(hydroxyimino)acetamido]-3-[2,4-(bis)isothiouroniummethylphenylthio]-3-cephem-4-carboxylate, trifluoroacetic acid salt] | – | – | 4/10 | 0/10 | 1/10 | 4 | 0.25 | 4 | 0.25 | 4 | 0.5 | 0.125 | 1 | > 32 | 0.28 | 4/10 | 8/10 | –
6 | CSCC(=O)N[C@@H]1C(=O)N2C(C(=O)O)=C(Sc3ccc(CSC(=N)N)cc3CSC(=N)N)CS[C@H]12 [Cmpd 140, (7R)-7-[(methylthioacetyl)amino]-3-[2,4-(bis)isothiouroniummethylphenylthio]-3-cephem-4-carboxylate, trifluoroacetic acid salt] | – | – | 2/10 | 0/10 | 0/10 | 2 | 0.125 | 8 | ≤ 0.06 | 8 | 1 | 1 | > 32 | > 32 | < 0.156 | 0/10 | 1/10 | –
7 | N=C(N)NCCSCC(=O)N[C@@H]1C(=O)N2C(C(=O)O)=C(Sc3ccc(CSC(=N)N)cc3CSC(=N)N)CS[C@H]12 [Cmpd 141, (7R)-7-[((2-guanidinoethylthio)acetyl)amino]-3-[2,4-(bis)isothiouroniummethylphenylthio]-3-cephem-4-carboxylate, trifluoroacetic acid salt] | – | – | 2/10 | 1/10 | 1/10 | 2 | 0.25 | 8 | 0.25 | 8 | 0.5 | 1 | 4 | > 32 | < 0.156 | 3/10 | 3/10 | –
8 | N=C(N)SCCSCC(=O)N[C@@H]1C(=O)N2C(C(=O)O)=C(Sc3ccc(CSC(=N)N)cc3CSC(=N)N)CS[C@H]12 [Cmpd 142, (7R)-7-[((2-(isothiouronium)ethylthio)acetyl)amino]-3-[2,4-(bis)isothiouroniummethylphenylthio]-3-cephem-4-carboxylate, trifluoroacetic acid salt] | – | – | 0/10 | 0/10 | 0/10 | 4 | 0.25 | 8 | 0.25 | 8 | 0.5 | 1 | – | > 32 | < 0.156 | 3/10 | 1/10 | –
9 | N=C(N)SCCSCC(=O)N[C@@H]1C(=O)N2C(C(=O)O)=C(Sc3ccccc3CSC(=N)N)CS[C@H]12 [Cmpd 143, (7R)-7-[((2-(isothiouronium)ethylthio)acetyl)amino]-3-[2-(isothiouroniummethyl)phenylthio]-3-cephem-4-carboxylate, trifluoroacetic acid salt] | – | – | 2/10 | – | – | 8 | – | 16 | 0.125 | 16 | 0.5 | 0.5 | 8 | > 32 | 0.34 | 9/10 | 6/10 | MIC [5]: 0.125 µg/mL; Mortality ([4]; dose 0.0391 mg/kg): 9/10; Mortality ([4]; dose 0.0781 mg/kg): 8/10
